Laboratory results taken from PMC6143478, “Lipophilic activated ester prodrug approach for drug delivery to the intestinal lymphatic system” (Journal of Controlled Release, 2018).
In brackets after ≈: the same amount, converted by molar mass. Like-named read-outs stand apart in the source and are kept apart here.

Experiments:
[1] = Plasma pharmacokinetics following oral administration in rats; type: in vivo, rat; settings: for AUC(0-inf) / AUC(0-t) / half-life / Cmax: male, Sprague Dawley, rat, plasma, po, 10 mg/kg, dose equivalent to 10 mg/kg BEX; for AUC(0-inf) / AUC(0-t) / half-life: BEX in plasma; for Cmax: Cmax of BEX in plasma, read-out: C0 or Cmax; for Foral: oral bioavailability of BEX, calculated on AUC0→t after i.v. BEX 2.5 mg/kg [33]
Protocol: (§1) The protocols for pharmacokinetic and biodistribution experiments in this study were reviewed and approved by the University of Nottingham Ethical Review Committee in accordance with the Animals [Scientific Procedures] Act 1986. Male Sprague Dawley rats (Charles River Laboratories, UK) weighing 350–380 g were used. The animals were housed in the Bio Support Unit, University of Nottingham. Continuous lymph collection was performed according to a protocol approved by the Institutional Animal Care and Use Committee at Rutgers, The State University of New Jersey. Male Sprague Dawley rats (Envigo, Inc., NJ, USA) weighing 300–350 g were used for the continuous lymph collection. Animals were allowed free access to food and water and were acclimatised for at least 6 days prior to any procedures at both institutions in a controlled-temperature environment with 12 h light/dark cycles.
Jugular vein cannulation surgery procedures were conducted under general anaesthesia for blood sampling. The animals were allowed two days to recover following surgery and were fasted up to 12 h prior to experiments with free access to drinking water. Formulations were prepared at concentrations equivalent to 2.5 mg/mL and 10 mg/mL of active drug for intravenous and oral administration, respectively. Solutions of the tested compounds in PEG400 were used as the dosing vehicle for intravenous administration. For oral administration, all prodrugs were administered as a solution in sesame oil to stimulate intestinal lymphatic transport. For oral administration of BEX and RA, oral gavage of sesame oil was administered prior to administration of BEX or RA solution in PEG400 due to low solubility of the two compounds in TG. In the lipid-free group BEX was administered orally formulated as a solution in PEG400. The formulations were administered by an oral gavage for oral administration or via the jugular vein cannula followed by 0.3 mL heparinised saline (50 IU/mL) for intravenous injection. Blood samples of 250 μL volume were collected from the cannula at pre-determined time points following administration. NaF (10 mg/mL) was used as an anticoagulant and inhibitor of esterase activity. Blood samples were centrifuged at 3000 g for 10 min to obtain plasma.
(§2) A combination of protein precipitation and liquid-liquid extraction was applied to samples prior to HPLC injection. To 100 μL sample, 300 μL of acetonitrile was added for protein precipitation and then 300 μL of pH modifier was added when necessary (Supplementary Material Table S2). […] The organic layer was separated and evaporated under N2 gas. Reconstitution solvent (100 μL) was used as detailed in Supplementary Material Table S2 and 40 μL was injected into the HPLC-UV system. […] Therefore, storage and preparation of all samples were performed within the time frame and conditions of confirmed stability.
(§3) The HPLC-UV system consisting of a separation module (Waters Alliance 2695) equipped with a UV detector (Waters 996) was used for analysis. Samples in the autosampler were maintained at 4 °C and the column at 40 °C. The stationary and mobile phases were used as specified in Supplementary Material Table S2. BEX and its prodrugs were detected at 259 nm and RA and its prodrugs at 357 nm.
Assessment of statistical significance of differences between two groups was conducted by means of two-tailed unpaired t-test. Statistical significance among three or more groups was assessed by means of a one-way ANOVA followed by Tukey's multiple comparisons test. Statistical significance was declared when a p-value was lower than 0.05. The analyses were performed on GraphPad Prism version 7.01 (GraphPad Software, Inc., La Jolla, CA, USA). The concentrations that inhibited cell growth by 50% (GI50) were also calculated using GraphPad Prism and isobole plots were presented following a previously reported method to assess synergy between BEX and RA [28]. […]

[2] = test system: DOHH2 cells; experiment: Cell growth inhibition MTT assay, DOHH2; type: cell-based; settings: 72 h, RA 0.425 μM (0.625% × GI50 of RA)
Protocol: (§4) DLBCL cell lines of DOHH2 and VAL were obtained from the Gene Regulation and RNA Biology group in University of Nottingham. Cell growth inhibition was assessed by MTT assay with a minor modification from previously reported methods [[25], [26], [27]]. Cells were seeded at a density of 2000 cells/well and allowed to adapt overnight. Test compounds were serial-diluted with dimethyl sulfoxide (DMSO) and spiked on the next day to yield 0.1% (v/v) DMSO. Control wells were treated with 0.1% DMSO vehicle alone. At the time of drug addition, separately prepared wells were processed for Tzero readings as previously described. The treated cells were incubated further for 72 h at 37 °C and processed for cell growth assessments.
(§5) Assessment of statistical significance of differences between two groups was conducted by means of two-tailed unpaired t-test. Statistical significance among three or more groups was assessed by means of a one-way ANOVA followed by Tukey's multiple comparisons test. Statistical significance was declared when a p-value was lower than 0.05. […] Pharmacokinetic parameters were calculated by non-compartmental analysis using Phoenix WinNonlin 6.3 software (Pharsight, Mountain View, CA, USA).
(§6) The anticancer effects of BEX and RA were assessed by MTT assay using DLBCL cell lines. The GI50 of each drug was firstly determined in each cell line. […]

[3] = Biodistribution to mesenteric lymph nodes (MLN) and lymph following oral administration in rats; type: in vivo; settings: BEX analyte, dose equivalent to 10 mg/kg BEX, rat, in words
Protocol: as §1
Formulations were prepared as described in the above pharmacokinetic study and were delivered by an oral gavage. Animals were euthanised at pre-determined time points. Blood was collected from the posterior vena cava and lymph samples were taken from the mesenteric lymph duct. MLNs were dissected and collected as previously described. The MLNs were isolated from surrounding tissue with care not to compromise the integrity of the lymph nodes. The MLNs were homogenised (POLYTRON® PT 10–35 GT, Kinematica AG, Luzern, Switzerland) with 10 mg/mL NaF in water (1,2, w/v) on an ice bath prior to sample preparation for HPLC analysis.
as §2, §3

[4] = test system: VAL cells; experiment: Cell growth inhibition MTT assay, VAL; type: cell-based; settings: 72 h, RA 0.400 μM (0.625% × GI50 of RA)
Protocol: as §4, §5, §6

[5] = TG solubility measurement in sesame oil; type: physicochemical; settings: oil or lipid, thermodynamic from solid, 37 °C
Protocol: Compounds were dissolved in fresh aliquots of sesame oil in excessive amounts in glass vials (in triplicate) and stirred using a magnetic stirring bar at 37 °C for 72 h. The mixture was then filtered by centrifugation in a Costar Spin-X Centrifuge Tube (Fisher Scientific, Loughborough, UK) at 2400 g for 5 min. The filtrates were analysed for concentration of the tested compounds by means of HPLC.

[6] = test system: human chylomicrons (CM); experiment: Ex vivo association with human plasma-derived chylomicrons; type: in vitro ADME; settings: in words
Excerpt: The protocol for preparation of human plasma-derived CM emulsion was approved by the Faculty of Medicine and Health Sciences Research Ethics Committee, Queens Medical Centre, Nottingham University Hospitals (BT12102015 CBS SoP). Healthy male volunteers of 19–40 years old and with body mass index of 18.5–25.0 were enrolled in the study after providing informed consent. The participants were excluded if any medication was used within one week prior to enrolment. On the morning of the study, participants received a high-fat meal (equivalent to a full English breakfast). Between 3 and 4 h following breakfast, 30 mL of blood was collected using heparinised tubes (Vacutainer® Blood Collection Tubes) and centrifuged (800 g, 10 min, 15 °C) to obtain plasma.
CM separation was performed as previously reported with minor modifications. Briefly, KBr (0.57 g) was mixed with 4 mL of plasma to yield density of 1.1 g/mL. PBS with densities of 1.006, 1.019, and 1.063 g/mL were prepared by adding appropriate amounts of KBr. These PBS of different densities were layered on top of the plasma to build density gradient layers in polyallomer ultracentrifuge tubes. The samples were then centrifuged at 268,350 g for 35 min at 15 °C using an ultracentrifuge (SORVALL® TH-641 Rotor, Thermo Fisher Scientific, UK). Following ultracentrifugation, approximately 1 mL of the upper layer containing CM was collected. TG concentration of CM emulsion was assessed using the TG enzymatic kit (Sigma Aldrich, Dorset, UK). TG concentration of the emulsion was adjusted to 100 mg/dL by diluting with PBS of 1.006 g/mL density. The CM emulsion was stored at 4 °C until the association assay (˂24 h).
The association of the compounds with artificial lipid particle emulsion and human CM was assessed using previously reported methodology with minor modifications. Briefly, 1 mL of artificial lipid particle or CM emulsions (TG concentration 100 mg/dL) was used for the association assay. The emulsion was spiked with stock solutions of tested compounds (in acetonitrile) to give a final concentration of 1.755 μM. The reaction mixtures were incubated at 37 °C for 1 h with magnetic stirring at 300 rpm. Following the incubation, density gradient ultracentrifugation was applied as described above to isolate the artificial lipid particles or CM associated with the tested compounds from the rest of the experimental medium. All experiments were conducted in quintuplicates or above.

AUC(0-inf) ([1]; p.o. (lipid-based)) [µg·h/mL]	AUC(0-t) ([1]; p.o. (lipid-based)) [µg·h/mL]	half-life ([1]; p.o. (lipid-based)) [h]	AUC(0-t) ([1]; p.o. (lipid-free)) [µg·h/mL]	half-life ([1]; p.o. (lipid-free)) [h]	AUC(0-inf) ([1]; p.o. (lipid-free, PEG400)) [µg·h/mL]	Cmax ([1]; p.o. (lipid-based)) [µg/mL]	Cmax ([1]; p.o. (lipid-free)) [µg/mL]	Foral ([1]; p.o. (lipid-based)) [%]	Foral ([1]; p.o. (lipid-free)) [%]	concentrations of BEX in intestinal lymphatics (MLNs, lymph) relative to plasma [3]	Compound	cell growth inhibition by BEX in conjunction with RA [2]	cell growth inhibition by BEX in conjunction with RA [4]	solubility at 72 h [5] [mg/mL]	difference in affinity for artificial emulsion versus natural human CM [6]
6.62 ± 1.31	5.66 ± 1.76	3.7 ± 1.2	4.91 ± 1.79	3 ± 0.7	5.84 ± 2.14	1.1 ± 0.432	0.899 ± 0.338	30.6 ± 9.5	26.5 ± 9.6	lower than those in plasma	C=C(c1ccc(C(=O)O)cc1)c1cc2c(cc1C)C(C)(C)CCC2(C)C [BEX, bexarotene]	significantly and synergistically inhibited	significantly and synergistically inhibited		
											C=C(c1ccc(C(=O)OCC(=O)N(CC)CC)cc1)c1cc2c(cc1C)C(C)(C)CCC2(C)C [prodrug 20]			2.67 ± 0.06 (≈ 5.78 mM)	significant differences
